We go through twelve molecules from patent US12404260B2, “Pyridine rings containing derivatives as MALT1 inhibitors” (Janssen Pharmaceutica NV, priority 2019, dated 2025).

For orientation: IC50 means the midpoint of a concentration-inhibition curve.

Molecules are shown by their SMILES. Some results are limits rather than exact numbers.

Assay [1] has as its system secretion of IL6 by OCI-LY3 ABC-DLBCL cells. Description: Human IL6 Mesoscale assay (OCI-LY3). It counts as cell-based. As to conditions: 24 h incubation, IL6 in supernatant. In a few lines: (§1)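 OCI-LY3 cells (100,000/well) treated 24 h at 37° C with compounds, 9-point 1:2 dilutions from 15 μM to 58.6 nM (0.3% DMSO). Supernatant IL6 and IL10 quantified by Mesoscale electrochemiluminescence immunoassay; DMSO defined maximum signal, BTK inhibitor RN486 defined maximum inhibition.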

Assay [2] has as its system secretion of IL10 by OCI-LY3 ABC-DLBCL cells. Briefly: Human IL10 Mesoscale assay (OCI-LY3). It counts as cell-based. The note with it: 24 h incubation, IL10 in supernatant. In a few lines: as §1
Assay [3] addresses T1, full-length MALT1 protein (Strep-MALT1(1-824)-His) (Homo sapiens, UniProt Q9UDY8).
T1 construct: full-length MALT1 protein (Strep-MALT1(1-824)-His) purified from baculovirus-infected insect cells; Strep (N); His (C); made in house; host or cells: baculovirus-infected insect cells
T1 sequence (Q9UDY8 1-824): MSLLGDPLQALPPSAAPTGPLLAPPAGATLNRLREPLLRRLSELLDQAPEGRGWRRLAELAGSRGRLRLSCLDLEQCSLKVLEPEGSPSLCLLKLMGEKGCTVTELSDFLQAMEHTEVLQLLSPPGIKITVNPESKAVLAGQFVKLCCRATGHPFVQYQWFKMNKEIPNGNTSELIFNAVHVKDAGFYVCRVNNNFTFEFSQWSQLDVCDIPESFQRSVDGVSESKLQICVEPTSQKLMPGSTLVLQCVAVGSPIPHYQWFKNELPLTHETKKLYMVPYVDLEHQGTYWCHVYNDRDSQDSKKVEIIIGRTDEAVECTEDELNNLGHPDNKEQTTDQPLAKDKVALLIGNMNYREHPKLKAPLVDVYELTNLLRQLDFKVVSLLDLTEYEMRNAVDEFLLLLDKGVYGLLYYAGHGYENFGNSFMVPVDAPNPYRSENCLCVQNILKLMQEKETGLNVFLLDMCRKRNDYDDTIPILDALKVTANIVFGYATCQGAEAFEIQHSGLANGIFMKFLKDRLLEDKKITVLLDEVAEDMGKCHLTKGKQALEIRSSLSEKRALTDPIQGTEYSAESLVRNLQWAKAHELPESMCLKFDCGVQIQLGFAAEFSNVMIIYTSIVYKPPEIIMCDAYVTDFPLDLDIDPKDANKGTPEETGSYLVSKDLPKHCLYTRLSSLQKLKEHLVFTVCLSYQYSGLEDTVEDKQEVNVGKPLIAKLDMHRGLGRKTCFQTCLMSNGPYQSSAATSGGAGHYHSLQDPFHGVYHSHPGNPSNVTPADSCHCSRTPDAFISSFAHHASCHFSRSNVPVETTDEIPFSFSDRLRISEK
Description: MALT1 Biochemical Protease Assay. The note with it: 10 nM FL MALT1, 200 μM Ac-LRSR-AMC, 50 min pre-incubation, 4 h at RT; read-out: MALT1_Biochemical activity (Ac-LRSR-amc) IC50. In a few lines: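 Full-length Strep-MALT1(1-824)-His from baculovirus-infected insect cells, 10 nM, preincubated with compound 50 min at RT; 200 μM Ac-LRSR-AMC (KM) in 50 mM Tris pH 7.5, 0.6 M citrate, 1 mM DTT, 1 mM EDTA, 0.05% BSA, 1.5% DMSO. Fluorescence 355/460 nm, 4 h minus time 0; 11-point 1:3 series 30 μM–0.5 nM, IC50 with Hill slope.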

With `CO[C@@H](C)c1c(NC(=O)Nc2cnc(-n3nccn3)c(Cl)c2)cnc(C)c1Cl` [Co. 105], the figures for the IC50 in assay [1], in assay [2] and in assay [3] were 120 nM, 60 nM and 40 nM, respectively.

Take `CO[C@@H](C)c1c(NC(=O)Nc2cnc(-n3nccn3)c(C(F)(F)F)c2)cnc(C)c1Cl` [Co. 111]: the half-maximal inhibitory concentration (IC50) in assay [1] worked out at 90 nM; in assay [2], 60 nM; in assay [3] it was 30 nM.

In the case of `CO[C@H](C)c1c(NC(=O)Nc2cnc(-n3nccn3)c(C(F)(F)F)c2)cnc(C)c1Cl` [Co. 112], the IC50 in assay [1] is 870 nM; in assay [2] it was 480 nM; in assay [3], 680 nM.

In the case of `CO[C@@H](C)c1c(NC(=O)Nc2cnc(-n3ncc([C@@H](C)O)n3)c(Cl)c2)cnc(C)c1C#N` [Co. 115], the IC50 in assay [1] stood at 230 nM; in assay [2], 100 nM; in assay [3] it was 60 nM.

Regarding `CO[C@@H](C)c1c(NC(=O)Nc2cnc(-n3nccn3)c(Cl)c2)cnc(N)c1Br` [Co. 118], the figures for the concentration for half-maximal inhibition (IC50) in assay [1], in assay [2] and in assay [3] were 2750 nM, 1510 nM and 480 nM, respectively.

On to `CO[C@H](C)c1c(NC(=O)Nc2cnc(-n3nccn3)c(Cl)c2)cnc(N)c1Br` [Co. 119], for which the concentration for half-maximal inhibition (IC50) in assay [1] is 90 nM; in assay [2], 50 nM; in assay [3], 20 nM.

Regarding `CO[C@@H](c1c(NC(=O)Nc2cnc(-n3nccn3)c(C(F)(F)F)c2)cnc(C)c1C#N)C1CC1` [Co. 121], the IC50 in assay [1] turned out to be 60 nM; in assay [2], 40 nM; in assay [3], 20 nM.

`CO[C@H](c1c(NC(=O)Nc2cnc(-n3nccn3)c(C(F)(F)F)c2)cnc(C)c1C#N)C1CC1` [Co. 122]: the IC50 in assay [1] amounted to 140 nM; in assay [2], 130 nM; in assay [3] it was 60 nM.

`COc1cncc(NC(=O)Nc2cnc(-n3nccn3)c(C(F)(F)F)c2)c1[C@@H](C)OC` [Co. 124]: the IC50 in assay [1] was determined as 150 nM; in assay [2] it was 110 nM; in assay [3], 80 nM.

Regarding `COc1cncc(NC(=O)Nc2cnc(-n3nccn3)c(C(F)(F)F)c2)c1[C@H](C)OC` [Co. 125], the IC50 is 4570 nM in assay [1], 2240 nM in assay [2] and 1450 nM in assay [3].

As for `COc1nc(-n2nccn2)c(C(F)(F)F)cc1NC(=O)Nc1cnc(NC(C)(C)C)c(Br)c1C(C)OC` (stereo not drawn) [Co. 151], the IC50 is over 15000 nM in assay [1] (Homo sapiens), over 15000 nM in assay [2] (Homo sapiens) and over 30000 nM in assay [3].

For the molecule `COc1c(NC(C)(C)C)ncc(NC(=O)Nc2cnc(-n3nccn3)c(C(F)(F)F)c2)c1C(C)OC` (stereo not drawn) [Co. 152], the figures for the half-inhibitory concentration (IC50) in assay [1] (Homo sapiens), in assay [2] (Homo sapiens) and in assay [3] were over 15000 nM, over 15000 nM and over 30000 nM, respectively.
